From ChEMBL document CHEMBL5252653, “Design, Synthesis, and Bioevaluation of Dexmedetomidine Prodrug” (ACS Med Chem Lett, 2023)

Key:
Rattus norvegicus [1] = assay: Sedative activity in Sprague-Dawley rat at 10 to 110 microg/ml, iv administered as bolus dose by dixon analysis; type: functional
[2] = Toxicity in Sprague-Dawley rat assessed as survival rate at 2 times of EC50; details: in vivo, read-out: Activity
Rattus norvegicus [3] = species on record: Rattus norvegicus; assay: Sedative activity in Sprague-Dawley rat assessed as onset time at 2 times of EC50; type: functional; details: dose 10-110 µg/ml; route iv
Rattus norvegicus [4] = assay: Sedative activity in Sprague-Dawley rat assessed as duration time at 2 times of EC50 administered as bolus dose; type: functional
[5] = Prodrug conversion in Sprague-Dawley rat assessed as dexmedetomidine release at 2 times of ED50; type: ADME; details: in vivo
[6] = Cardiotoxicity in Sprague-Dawley rat assessed as decrease in blood pressure at 20 to 80 microg/ml, iv administered as bolus dose by ECG analysis; type: toxicity, organism-based; set-up: scale not given: the % may be the effect or the level left; details: in vivo, at 20 to 80 µg/mL, dose 20-80 µg/ml
[7] = Cardiotoxicity in Sprague-Dawley rat assessed as decrease in blood pressure at 20 to 80 microg/ml, iv administered as bolus dose measured for 45 mins by ECG analysis; type: toxicity, organism-based; set-up: scale not given: the % may be the effect or the level left; details: in vivo, 0.75 h, at 20 to 80 µg/mL, dose 20-80 µg/ml
[8] = Prodrug conversion in Sprague-Dawley rat plasma assessed as dexmedetomidine release measured at 5 mins by HPLC analysis; type: ADME, cell-free
[9] = Cardiotoxicity in Sprague-Dawley rat assessed as reduction in heart rate at 20 to 80 microg/ml, iv administered as bolus dose by ECG analysis; type: toxicity, organism-based; details: in vivo, dose 20-80 µg/ml
[10] = Prodrug conversion in Sprague-Dawley rat plasma assessed as dexmedetomidine release measured at 30 mins by HPLC analysis; type: ADME, cell-free; details: 0.5 h
[11] = Prodrug conversion in Sprague-Dawley rat plasma assessed as dexmedetomidine release measured at 15 mins by HPLC analysis; type: ADME, cell-free; details: 0.25 h
[12] = Cardiotoxicity in Sprague-Dawley rat assessed as change in heart rate at 20 to 80 microg/ml, iv administered as bolus dose by ECG analysis; type: toxicity, organism-based; details: in vivo, at 20 to 80 µg/mL, dose 20-80 µg/ml
[13] = Prodrug conversion in Sprague-Dawley rat plasma assessed as dexmedetomidine release measured at 1 hr by HPLC analysis; type: ADME, cell-free
[14] = Cardiotoxicity in Sprague-Dawley rat assessed as bradycardia at 20 to 80 microg/ml, iv administered as bolus dose by ECG analysis; type: toxicity, organism-based; details: in vivo, at 20 to 80 µg/mL, dose 20-80 µg/ml
[15] = Prodrug conversion in Sprague-Dawley rat plasma assessed as dexmedetomidine release measured at 2 mins by HPLC analysis; type: ADME, cell-free

Row | SMILES | ED50 (Rattus norvegicus [1]) | survival [2] | Time (Rattus norvegicus [3]) | Time (Rattus norvegicus [4]) | Drug metabolism [5] | Activity [6] | Activity [7] | Drug metabolism [8] | Activity [9] | Drug metabolism [10] | Drug metabolism [11] | Activity [12] | Drug metabolism [13] | Activity [14] | Drug metabolism [15]
1 | Cc1cccc([C@H](C)c2cncn2COP(=O)([O-])[O-])c1C.[Na+].[Na+] | 0.0402 mg/kg | 100% | 206.5 s | 3966.6 s | 45.5 µg/kg | 15.15% |  |  |  |  |  |  |  |  | 
2 | CCOC(=O)n1cnc([C@@H](C)c2cccc(C)c2C)c1.Cl | 0.0213 mg/kg | 100% | 289.1 s | 1971.4 s | 27.61 µg/kg |  |  |  |  |  |  |  |  |  | 
3 | CC(=O)OCn1cnc([C@@H](C)c2cccc(C)c2C)c1.Cl | 0.0321 mg/kg | 100% | 252.4 s | 2483.6 s | 41.68 µg/kg |  | 29.66% |  |  |  |  |  |  |  | 
4 | Cc1cccc([C@H](C)c2cn(COC(=O)C(C)C)cn2)c1C.Cl | 0.0399 mg/kg | 100% | 63.9 s | 3798.6 s | 47.44 µg/kg |  |  | Metabolite_Detected |  |  |  |  |  |  | 
5 | Cc1cccc([C@H](C)c2cn(C(=O)OCC(C)C)cn2)c1C.Cl | 0.0359 mg/kg | 100% | 151.9 s | 2802.9 s | 42.7 µg/kg | 34.65% |  |  | Toxic |  |  |  |  |  | 
6 | CCC(=O)OC(C)n1cnc([C@@H](C)c2cccc(C)c2C)c1.Cl (stereo not given in full) | 0.035 mg/kg | 100% | 159.8 s | 2295.6 s | 41.58 µg/kg |  | 32.17% |  | Toxic | Metabolite_Detected |  |  |  |  | 
7 | CCCOC(=O)n1cnc([C@@H](C)c2cccc(C)c2C)c1 | 0.0255 mg/kg | 100% | 142.1 s | 2605.7 s | 31.7 µg/kg | 28.23% |  |  |  |  |  |  |  |  | 
8 | CCOC(=O)COC(=O)OCn1cnc([C@@H](C)c2cccc(C)c2C)c1.Cl | 0.0468 mg/kg | 100% | 68.2 s | 3177.7 s | 47.22 µg/kg |  | 28.49% |  | Toxic |  |  |  |  |  | 
9 | CC(=O)OC(C)n1cnc([C@@H](C)c2cccc(C)c2C)c1.Cl (stereo not given in full) | 0.0263 mg/kg | 100% | 117 s | 2274.1 s | 32.61 µg/kg | 14.67% |  |  |  | Metabolite_Detected |  |  |  |  | 
10 | CCC(=O)OCn1cnc([C@@H](C)c2cccc(C)c2C)c1.Cl | 0.0268 mg/kg | 100% | 184.4 s | 2325.8 s | 33.32 µg/kg | 34.92% |  | Metabolite_Detected |  |  |  |  |  |  | 
11 | COC(=O)n1cnc([C@@H](C)c2cccc(C)c2C)c1.Cl | 0.02 mg/kg | 100% | 219.5 s | 2018.2 s | 25.77 µg/kg | 17.35% |  |  |  |  | Metabolite_Detected |  |  |  | 
12 | Cc1cccc([C@H](C)c2cn(COC(=O)C3CCC3)cn2)c1C.Cl | 0.034 mg/kg | 100% | 214.4 s | 2841.2 s | 39.02 µg/kg |  |  |  |  |  |  |  |  |  | 
13 | Cc1cccc([C@H](C)c2cn(COC(=O)C(C)(C)C)cn2)c1C.Cl | 0.0551 mg/kg | 100% | 157.9 s | 3091.8 s | 62.94 µg/kg | 14.57% |  |  | Toxic |  |  | -27.08% |  |  | 
14 | COC(=O)CCC(=O)OCn1cnc([C@@H](C)c2cccc(C)c2C)c1.Cl | 0.0301 mg/kg | 100% | 78.9 s | 2733.9 s | 31.71 µg/kg |  |  |  | Toxic |  |  |  | Metabolite_Detected |  | 
15 | Cc1cccc([C@H](C)c2cn(COC(=O)c3ccccc3)cn2)c1C.Cl | 0.0595 mg/kg | 100% | 204.1 s | 4457.7 s | 64.29 µg/kg |  |  |  | Toxic | Metabolite_Detected |  |  |  |  | 
16 | Cc1cccc([C@H](C)c2cn(COC(=O)OC(C)C)cn2)c1C.Cl | 0.0311 mg/kg | 100% | 305.2 s | 2458.7 s | 35.33 µg/kg |  |  |  |  |  |  |  |  |  | 
17 | Cc1cccc([C@H](C)c2cn(C(=O)OC(C)C)cn2)c1C.Cl | 0.0446 mg/kg | 100% | 239.3 s | 3984.1 s | 55.39 µg/kg | 22.4% |  |  | Toxic |  | Metabolite_Detected | -22.88% |  | -22.88% | 
18 | CCCC(=O)OCn1cnc([C@@H](C)c2cccc(C)c2C)c1.Cl | 0.0211 mg/kg | 100% | 265 s | 1941.9 s | 25.15 µg/kg | 20.07% |  | Metabolite_Detected | Toxic |  |  | -29.92% |  |  | 
19 | COC(=O)OCn1cnc([C@@H](C)c2cccc(C)c2C)c1.Cl | 0.0232 mg/kg | 100% | 259.6 s | 2017.2 s | 28.68 µg/kg | 16.35% |  |  |  |  |  |  |  |  | 
20 | CCOC(=O)CCC(=O)OCn1cnc([C@@H](C)c2cccc(C)c2C)c1.Cl | 0.0273 mg/kg | 100% | 116 s | 2484.1 s | 27.67 µg/kg |  |  |  | Toxic |  |  |  | Metabolite_Detected |  | 
21 | Cc1cccc([C@H](C)c2cn(COC(=O)C3CC3)cn2)c1C.Cl | 0.0298 mg/kg | 100% | 195.2 s | 2410 s | 35.67 µg/kg |  |  |  |  |  |  |  |  |  | 
22 | Cc1cccc([C@H](C)c2cn(COC(=O)OC3CC3)cn2)c1C.Cl | 0.0232 mg/kg | 100% | 92.1 s | 2795.7 s | 26.53 µg/kg | 37.25% |  | Metabolite_Detected |  |  |  |  |  |  | Metabolite_Detected
23 | CCOC(=O)OCn1cnc([C@@H](C)c2cccc(C)c2C)c1.Cl | 0.0292 mg/kg | 100% | 122.5 s | 2887.7 s | 34.47 µg/kg |  |  |  | Toxic |  |  |  |  | -24.88% | 
24 | Cc1cccc([C@H](C)c2cn(COC(=O)OC3CCC3)cn2)c1C.Cl | 0.0268 mg/kg | 100% | 185 s | 3189.5 s | 29.48 µg/kg | 34.79% |  | Metabolite_Detected | Toxic |  |  |  |  |  | Metabolite_Detected
25 | COC(=O)COC(=O)OCn1cnc([C@@H](C)c2cccc(C)c2C)c1.Cl | 0.0487 mg/kg | 100% | 94.9 s | 3795.2 s | 50.93 µg/kg |  | 31.3% |  | Toxic |  |  |  |  |  | 
26 | Cc1cccc([C@H](C)c2cnc[nH]2)c1C [DEXMEDETOMIDINE] | 0.0168 mg/kg | 100% | 87.8 s | 3312 s | 28.38 µg/kg | 43.55% |  |  |  |  |  | -33.58% |  | -41.07% | 
